Experimental data: patent US9085605B2, “Chemical synthesis and anti-tumor and anti-metastatic effects of dual functional conjugate” (Shenzhen Salubris Pharmaceuticals Co., Ltd., priority 2010, dated 2015)

Tests used:
[1] = system: human breast cancer line MDA-MB-231; test: Tumor growth inhibition in nude mice xenograft model, MDA-MB-231
Protocol: • 1. […] Drug administration dose were set as: 10 mg/kg, 15 mg/kg, and 20 mk/kg, drug administration volume was 0.2 mL/20 g. • 2. […] MDA [Peptide (P) 0.54 mg/mL (0.001M), Example 10], a colorless and clear liquid, was prepared by the commission, can be directly used after the repackaging in a sterile condition, stored at 4° C. […] Certificate NO. […] SYSK (BeiJing) 2004-0001. Experiment Methods:
The mice were divided into groups and administrated drug after 11 days.
The mice were divided into eight groups, each group had 6-8 mice. The groups contained Negative control. […] After grouping, all mice were administrated with drug by intraperitoneal injection once a day depends on their body weight.
Other groups were administered with drugs for 24 times successively. The experiment was completed 24 h after the last administration.
The mice were sacrificed, and tumors were isolated and their weight was measured, and the inhibition rate of tumor growth by drugs were calculated. […] Calculation methods and formula were omitted.

[2] = system: 60 human tumor cell lines; test: NCI screening of antitumor activity in vitro in 60 human tumor cell lines; type: cell-based
Excerpt: The experimental results refer to FIGS. 1-12.

[3] = system: 10 human tumor cell lines; test: Antitumor activity screening in 10 human tumor cell lines; type: cell-based
Excerpt: In the invention, the compounds, MTC-301, MTC-302, MTC-303, MTC-304, MTC-305, MTC-306, MTC-307, MDC-308, MDC-403, MDC-404, MDC-405. MDC-406, MDC-407 and MDC-408 were screened their antitumor activity in 10 human tumor cell lines. […] The experimental results refer to FIGS. 13-16.

CC(NC(=O)/C=C/c1ccc(Cl)cc1)C(=O)N[C@@H](CCC(=O)NC(CCCCN)C(N)=O)C(N)=O (some centres unmarked) [MDA]
Tumor growth rate (in words) ([1]; MDA 0.54 mg/mL × 24): slower than the tumor growth rate of the negative control group | RTV ([1]; MDA 0.54 mg/mL × 24, i.p.): 15.06 ± 5.292 | T/C ([1]; MDA 0.54 mg/mL × 24, i.p.): 83.5% | TGI ([1]; MDA 0.54 mg/mL × 24, i.p.): 30.3% | Tumor volume Beginning ([1]; MDA 0.54 mg/mL × 24, i.p.): 141 ± 61.1 mm^3 | Tumor volume End ([1]; MDA 0.54 mg/mL × 24, i.p.): 1898 ± 775.4 mm^3 | Tumor weight ([1]; MDA 0.54 mg/mL × 24, i.p.): 1.98 ± 0.744 g

CC(=O)O[C@@]12CO[C@@H]1C[C@H](O)[C@@]1(C)C(=O)[C@H](O)C3=C(C)[C@@H](OC(=O)[C@H](OC(=O)CCC(=O)NCCCCC(NC(=O)CC[C@H](NC(=O)C(C)NC(=O)/C=C/c4ccc(Cl)cc4)C(N)=O)C(N)=O)[C@@H](NC(=O)OC(C)(C)C)c4ccccc4)C[C@@](O)([C@@H](OC(=O)c4ccccc4)[C@H]21)C3(C)C (some centres unmarked) [MDC-400]
50% growth inhibition (GI50) activity [2]: in the same magnitude range as paclitaxel

CC(=O)O[C@@]12CO[C@@H]1C[C@H](O)[C@@]1(C)C(=O)[C@H](O)C3=C(C)[C@@H](OC(=O)[C@H](OC(=O)CCC(=O)NCCCCC(NC(=O)CC[C@H](NC(=O)C(C)NC(=O)/C=C/c4ccc(F)cc4F)C(N)=O)C(N)=O)[C@@H](NC(=O)OC(C)(C)C)c4ccccc4)C[C@@](O)([C@@H](OC(=O)c4ccccc4)[C@H]21)C3(C)C (some centres unmarked) [MDC-403]
50% growth inhibition (GI50) activity [3]: in the same magnitude range as paclitaxel or docetaxel

CC(=O)O[C@@]12CO[C@@H]1C[C@H](O)[C@@]1(C)C(=O)[C@H](O)C3=C(C)[C@@H](OC(=O)[C@H](OC(=O)CCC(=O)NCCCCC(NC(=O)CC[C@H](NC(=O)C(C)NC(=O)/C=C/c4ccc(Cl)cc4F)C(N)=O)C(N)=O)[C@@H](NC(=O)OC(C)(C)C)c4ccccc4)C[C@@](O)([C@@H](OC(=O)c4ccccc4)[C@H]21)C3(C)C (some centres unmarked) [MDC-404]
50% growth inhibition (GI50) activity [3]: in the same magnitude range as paclitaxel or docetaxel

CC(=O)O[C@@]12CO[C@@H]1C[C@H](O)[C@@]1(C)C(=O)[C@H](O)C3=C(C)[C@@H](OC(=O)[C@H](OC(=O)CCC(=O)NCCCCC(NC(=O)CC[C@H](NC(=O)C(C)NC(=O)/C=C/c4ccc(F)cc4Cl)C(N)=O)C(N)=O)[C@@H](NC(=O)OC(C)(C)C)c4ccccc4)C[C@@](O)([C@@H](OC(=O)c4ccccc4)[C@H]21)C3(C)C (some centres unmarked) [MDC-405]
50% growth inhibition (GI50) activity [3]: in the same magnitude range as paclitaxel or docetaxel

CC(=O)O[C@@]12CO[C@@H]1C[C@H](O)[C@@]1(C)C(=O)[C@H](O)C3=C(C)[C@@H](OC(=O)[C@H](OC(=O)CCC(=O)NCCCCC(NC(=O)CC[C@H](NC(=O)C(C)NC(=O)/C=C/c4ccc(F)cc4)C(N)=O)C(N)=O)[C@@H](NC(=O)OC(C)(C)C)c4ccccc4)C[C@@](O)([C@@H](OC(=O)c4ccccc4)[C@H]21)C3(C)C (some centres unmarked) [MDC-406]
50% growth inhibition (GI50) activity [3]: in the same magnitude range as paclitaxel or docetaxel

CC(=O)O[C@@]12CO[C@@H]1C[C@H](O)[C@@]1(C)C(=O)[C@H](O)C3=C(C)[C@@H](OC(=O)[C@H](OC(=O)CCC(=O)NCCCCC(NC(=O)CC[C@H](NC(=O)C(C)NC(=O)/C=C/c4cccc(F)c4)C(N)=O)C(N)=O)[C@@H](NC(=O)OC(C)(C)C)c4ccccc4)C[C@@](O)([C@@H](OC(=O)c4ccccc4)[C@H]21)C3(C)C (some centres unmarked) [MDC-407]
50% growth inhibition (GI50) activity [3]: in the same magnitude range as paclitaxel or docetaxel

CC(=O)O[C@@]12CO[C@@H]1C[C@H](O)[C@@]1(C)C(=O)[C@H](O)C3=C(C)[C@@H](OC(=O)[C@H](OC(=O)CCC(=O)NCCCCC(NC(=O)CC[C@H](NC(=O)C(C)NC(=O)/C=C/c4ccc(F)c(F)c4)C(N)=O)C(N)=O)[C@@H](NC(=O)OC(C)(C)C)c4ccccc4)C[C@@](O)([C@@H](OC(=O)c4ccccc4)[C@H]21)C3(C)C (some centres unmarked) [MDC-408]
50% growth inhibition (GI50) activity [3]: in the same magnitude range as paclitaxel or docetaxel

CC(=O)O[C@H]1C(=O)[C@@]2(C)[C@H]([C@H](OC(=O)c3ccccc3)[C@]3(O)C[C@H](OC(=O)[C@H](OC(=O)CCC(=O)NCCCCC(NC(=O)CC[C@H](NC(=O)C(C)NC(=O)c4ccc5ccccc5n4)C(N)=O)C(N)=O)[C@@H](NC(=O)c4ccccc4)c4ccccc4)C(C)=C1C3(C)C)[C@]1(OC(C)=O)CO[C@@H]1C[C@@H]2O (some centres unmarked) [MTC-213]
50% growth inhibition (GI50) activity [2]: in the same magnitude range as paclitaxel

CC(=O)O[C@H]1C(=O)[C@@]2(C)[C@H]([C@H](OC(=O)c3ccccc3)[C@]3(O)C[C@H](OC(=O)[C@H](OC(=O)CCC(=O)NCCCCC(NC(=O)CC[C@H](NC(=O)C(C)NC(=O)/C=C/c4cccs4)C(N)=O)C(N)=O)[C@@H](NC(=O)c4ccccc4)c4ccccc4)C(C)=C1C3(C)C)[C@]1(OC(C)=O)CO[C@@H]1C[C@@H]2O (some centres unmarked) [MTC-219]
50% growth inhibition (GI50) activity [2]: in the same magnitude range as paclitaxel

CC(=O)O[C@H]1C(=O)[C@@]2(C)[C@H]([C@H](OC(=O)c3ccccc3)[C@]3(O)C[C@H](OC(=O)[C@H](OC(=O)CCC(=O)NCCCCC(NC(=O)CC[C@H](NC(=O)C(C)NC(=O)COc4cccc5ccccc45)C(N)=O)C(N)=O)[C@@H](NC(=O)c4ccccc4)c4ccccc4)C(C)=C1C3(C)C)[C@]1(OC(C)=O)CO[C@@H]1C[C@@H]2O (some centres unmarked) [MTC-233]
50% growth inhibition (GI50) activity [2]: in the same magnitude range as paclitaxel

CC(=O)O[C@H]1C(=O)[C@@]2(C)[C@H]([C@H](OC(=O)c3ccccc3)[C@]3(O)C[C@H](OC(=O)[C@H](OC(=O)CCC(=O)NCCCCC(NC(=O)CC[C@H](NC(=O)C(C)NC(=O)/C=C/c4ccc(O)cc4)C(N)=O)C(N)=O)[C@@H](NC(=O)c4ccccc4)c4ccccc4)C(C)=C1C3(C)C)[C@]1(OC(C)=O)CO[C@@H]1C[C@@H]2O (some centres unmarked) [MTC-301]
50% growth inhibition (GI50) activity [3]: in the same magnitude range as paclitaxel or docetaxel

CC(=O)O[C@H]1C(=O)[C@@]2(C)[C@H]([C@H](OC(=O)c3ccccc3)[C@]3(O)C[C@H](OC(=O)[C@H](OC(=O)CCC(=O)NCCCCC(NC(=O)CC[C@H](NC(=O)C(C)NC(=O)/C=C/c4ccc(C)cc4)C(N)=O)C(N)=O)[C@@H](NC(=O)c4ccccc4)c4ccccc4)C(C)=C1C3(C)C)[C@]1(OC(C)=O)CO[C@@H]1C[C@@H]2O (some centres unmarked) [MTC-302]
50% growth inhibition (GI50) activity [2]: in the same magnitude range as paclitaxel | 50% growth inhibition (GI50) activity [3]: in the same magnitude range as paclitaxel or docetaxel

CC(=O)O[C@H]1C(=O)[C@@]2(C)[C@H]([C@H](OC(=O)c3ccccc3)[C@]3(O)C[C@H](OC(=O)[C@H](OC(=O)CCC(=O)NCCCCC(NC(=O)CC[C@H](NC(=O)C(C)NC(=O)/C=C/c4ccc(F)cc4F)C(N)=O)C(N)=O)[C@@H](NC(=O)c4ccccc4)c4ccccc4)C(C)=C1C3(C)C)[C@]1(OC(C)=O)CO[C@@H]1C[C@@H]2O (some centres unmarked) [MTC-303]
50% growth inhibition (GI50) activity [3]: in the same magnitude range as paclitaxel or docetaxel

CC(=O)O[C@H]1C(=O)[C@@]2(C)[C@H]([C@H](OC(=O)c3ccccc3)[C@]3(O)C[C@H](OC(=O)[C@H](OC(=O)CCC(=O)NCCCCC(NC(=O)CC[C@H](NC(=O)C(C)NC(=O)/C=C/c4ccc(Cl)cc4F)C(N)=O)C(N)=O)[C@@H](NC(=O)c4ccccc4)c4ccccc4)C(C)=C1C3(C)C)[C@]1(OC(C)=O)CO[C@@H]1C[C@@H]2O (some centres unmarked) [MTC-304]
50% growth inhibition (GI50) activity [3]: in the same magnitude range as paclitaxel or docetaxel

CC(=O)O[C@H]1C(=O)[C@@]2(C)[C@H]([C@H](OC(=O)c3ccccc3)[C@]3(O)C[C@H](OC(=O)[C@H](OC(=O)CCC(=O)NCCCCC(NC(=O)CC[C@H](NC(=O)C(C)NC(=O)/C=C/c4ccc(F)cc4Cl)C(N)=O)C(N)=O)[C@@H](NC(=O)c4ccccc4)c4ccccc4)C(C)=C1C3(C)C)[C@]1(OC(C)=O)CO[C@@H]1C[C@@H]2O (some centres unmarked) [MTC-305]
50% growth inhibition (GI50) activity [3]: in the same magnitude range as paclitaxel or docetaxel

CC(=O)O[C@H]1C(=O)[C@@]2(C)[C@H]([C@H](OC(=O)c3ccccc3)[C@]3(O)C[C@H](OC(=O)[C@H](OC(=O)CCC(=O)NCCCCC(NC(=O)CC[C@H](NC(=O)C(C)NC(=O)/C=C/c4ccc(F)cc4)C(N)=O)C(N)=O)[C@@H](NC(=O)c4ccccc4)c4ccccc4)C(C)=C1C3(C)C)[C@]1(OC(C)=O)CO[C@@H]1C[C@@H]2O (some centres unmarked) [MTC-306]
50% growth inhibition (GI50) activity [3]: in the same magnitude range as paclitaxel or docetaxel

CC(=O)O[C@H]1C(=O)[C@@]2(C)[C@H]([C@H](OC(=O)c3ccccc3)[C@]3(O)C[C@H](OC(=O)[C@H](OC(=O)CCC(=O)NCCCCC(NC(=O)CC[C@H](NC(=O)C(C)NC(=O)/C=C/c4cccc(F)c4)C(N)=O)C(N)=O)[C@@H](NC(=O)c4ccccc4)c4ccccc4)C(C)=C1C3(C)C)[C@]1(OC(C)=O)CO[C@@H]1C[C@@H]2O (some centres unmarked) [MTC-307]
50% growth inhibition (GI50) activity [3]: in the same magnitude range as paclitaxel or docetaxel

CC(=O)O[C@H]1C(=O)[C@@]2(C)[C@H]([C@H](OC(=O)c3ccccc3)[C@]3(O)C[C@H](OC(=O)[C@H](OC(=O)CCC(=O)NCCCCC(NC(=O)CC[C@H](NC(=O)C(C)NC(=O)/C=C/c4ccc(F)c(F)c4)C(N)=O)C(N)=O)[C@@H](NC(=O)c4ccccc4)c4ccccc4)C(C)=C1C3(C)C)[C@]1(OC(C)=O)CO[C@@H]1C[C@@H]2O (some centres unmarked) [MTC-308]
50% growth inhibition (GI50) activity [3]: in the same magnitude range as paclitaxel or docetaxel
